Experimental data reported in patent publication US10144708B2, “Crystalline arylalkylamine compound and process for producing the same” (MITSUBISHI TANABE PHARMA CORPORATION, priority 2013, dated 2018).

Assays:
Format in all cases: physicochemical
[1] = Stability test: storage of Compound (A) and salts thereof, total increase in amounts of related substance; details: for Total increase in amounts of related substance (%): storage 60° C., 1 Week; for Increase in the amounts of related substance on storage (in words): storage conditions of Table 3 (60° C., Natural or 75% RH, 1 Week)
Protocol: Compound (A) and salts thereof were stored under the storage conditions described in Table 3, and the total increase in the amounts of related substance was measured.

[2] = Determination of crystal form stable at room temperature (form A and form B suspended together in chloroform, powder X-ray diffractometry); details: equal amounts of form A and form B suspended in chloroform, stirred at room temperature overnight
Protocol: Equal amounts of the form A crystal and the form B crystal of Compound (A) were added to the same container and were suspended in chloroform. The suspension was stirred at room temperature overnight. Thereafter, the suspended matter was filtered off and was analyzed by powder X-ray diffractometry to determine the type of the crystal form.

[3] = Stability test: storage of Compound (A) and salts thereof, total increase in amounts of related substance; details: conditions of No. 16 of Table 3: 60° C., 75% RH, 1 Week
[4] = Natural humidity, hydrochloride

Compound: C[C@@H](N[C@H]1CCN(c2ccc(CC(=O)O)cc2)C1)c1cccc2ccccc12.Cl [Compound (A) 1.5HCl Amorphous, 4-(3S-(1R-(1-naphthyl)ethylamino)pyrrolidin-1-yl)phenylacetic acid-1.5 hydrochloride]
- Total increase in amounts of related substance (%) ([1]; 75% RH, hydrochloride): 3.11%
- Total increase in amounts of related substance (%) [1, 4]: 8.21%
- Increase in the amounts of related substance on storage (in words) ([1]; listed as amorphous Compound (A).1.5 hydrochloride, hydrochloride): significantly increased

Compound: C[C@@H](N[C@H]1CCN(c2ccc(CC(=O)O)cc2)C1)c1cccc2ccccc12 [Compound (A) Amorphous, 4-(3S-(1R-(1-naphthyl)ethylamino)pyrrolidin-1-yl)phenylacetic acid (amorphous)]
- Total increase in amounts of related substance (%) ([1]; 75% RH): 14.16%
- Total increase in amounts of related substance (%) ([1]; Natural humidity): 3.32%
- Increase in the amounts of related substance on storage (in words) ([1]; listed as amorphous Compound (A)): significantly increased

Compound: C[C@@H](N[C@H]1CCN(c2ccc(CC(=O)O)cc2)C1)c1cccc2ccccc12 [Compound (A) Crystal (Form A), 4-(3S-(1R-(1-naphthyl)ethylamino)pyrrolidin-1-yl)phenylacetic acid (form A crystal)]
- Total increase in amounts of related substance (%) ([1]; 75% RH): 0.01%
- Total increase in amounts of related substance (%) ([1]; Natural humidity): 0.03%
- Increase in the amounts of related substance on storage (in words) ([1]; listed as form A crystal of Compound (A)): did not show a marked increase
- Crystal form stable at room temperature [2]: more stable at room temperature

Compound: C[C@@H](N[C@H]1CCN(c2ccc(CC(=O)O)cc2)C1)c1cccc2ccccc12 [Compound (A) Crystal (Form B), 4-(3S-(1R-(1-naphthyl)ethylamino)pyrrolidin-1-yl)phenylacetic acid (form B crystal)]
- Total increase in amounts of related substance (%) ([1]; 75% RH): 0.00%
- Total increase in amounts of related substance (%) ([1]; Natural humidity): 0.00%
- Increase in the amounts of related substance on storage (in words) ([1]; listed as form B crystal of Compound (A)): did not show a marked increase

Compound: Br.C[C@@H](N[C@H]1CCN(c2ccc(CC(=O)O)cc2)C1)c1cccc2ccccc12 [Compound (A) 1HBr Crystal, 4-(3S-(1R-(1-naphthyl)ethylamino)pyrrolidin-1-yl)phenylacetic acid.monohydrobromide]
- Total increase in amounts of related substance (%) ([1]; 75% RH): 0.13%
- Total increase in amounts of related substance (%) ([1]; Natural humidity): 0.21%
- Increase in the amounts of related substance on storage (in words) [1]: increase in the amounts of related substance was observed

Compound: C[C@@H](N[C@H]1CCN(c2ccc(CC(=O)O)cc2)C1)c1cccc2ccccc12.Cl [Compound (A) 1.7HCl Amorphous, 4-(3S-(1R-(1-naphthyl)ethylamino)pyrrolidin-1-yl)phenylacetic acid.1.7 hydrochloride]
- Total increase in amounts of related substance (%) ([1]; 75% RH, hydrochloride): 3.06%
- Total increase in amounts of related substance (%) [1, 4]: 8.33%
- Increase in the amounts of related substance on storage (in words) ([1]; listed as amorphous Compound (A).1.7 hydrochloride, hydrochloride): significantly increased

Compound: C[C@@H](N[C@H]1CCN(c2ccc(CC(=O)O)cc2)C1)c1cccc2ccccc12.Cl [Compound (A) 1HCl Crystal, 4-(3S-(1R-(1-naphthyl)ethylamino)pyrrolidin-1-yl)phenylacetic acid-monohydrochloride]
- Total increase in amounts of related substance (%) ([1]; 75% RH): 1.02%
- Total increase in amounts of related substance (%) ([1]; Natural humidity): 0.18%
- Increase in the amounts of related substance on storage (in words) ([1]; listed as Compound (A).monohydrochloride): increase in the amounts of related substance was observed

Compound: C1CCOC1.C[C@@H](N[C@H]1CCN(c2ccc(CC(=O)O)cc2)C1)c1cccc2ccccc12.Cl [Compound (A) 1HCl•1THF Crystal, 4-(3S-(1R-(1-naphthyl)ethylamino)pyrrolidin-1-yl)phenylacetic acid.monohydrochloride.monotetrahydrofuran solvate]
- Total increase in amounts of related substance (%) ([1]; 75% RH): 1.04%
- Total increase in amounts of related substance (%) ([1]; Natural humidity): 0.75%
- Increase in the amounts of related substance on storage (in words) [1]: increase in the amounts of related substance was observed
- Change of solid form on storage [3]: conversion thereof into Compound (A).monohydrochloride (crystal)
